According to article PMC9817077, “Simple, Reliable Protocol for High-Yield Solubilization of Seedless Amyloid-β Monomer” (ACS Chemical Neuroscience, 2022):

Tests used:
[1] = Global fitting of ThT self-assembly curves to nucleated polymerization models; assay type: physicochemical; details: global fit
From the text: To test whether an equivalent analysis favored
106 four models to ﬁt the experimental data. Each model was globally ﬁtted, with all kinetic 107 parameters shared across initial monomer concentrations.
Firstly, we tested the Oosawa model (19). In this model, ﬁbrils form by primary nucle-ation, which behaves as annthc -order multimerization process. Fibrils then grow by stepwise addition of monomers to the ﬁbril end, which behaves as a second-order association between a ﬁbril and a free monomer. This model admits the exact solution (13, 20) […]
m(0) = 1−sech2/nc 2 λt , (S2)
109 Here, kn is the rate parameter for primary nucleation and k+ is the rate parameter for 110 elongation. As shown in Figure S8(a), the Oosawa model results in a poor ﬁt. Speciﬁcally, 111 the lack of a secondary process means the model cannot produce exponential early-time 112 scaling, and lacks a pronounced lag phase. This […] our observation of exponential 113 early-time kinetics, and the ﬁndings of previous work (16).
Next, we tested models that included a secondary process. Three such processes were considered: fragmentation (13, 14, 21), single-step secondary nucleation (14), and saturable multi-stepsecondarynucleation(17,18). Inallthreecases, theapproximatesolutionhasthe same mathematical form, and the models diﬀer only in the deﬁnitions of certain parameters.
The general equation is (13, 14, 21)
M(t) B− +C+eκt κ˜k∞e−k∞t, (S4) m(0) = 1− B+ +C+eκt B− +C+
Here, λ has the same deﬁnition as Eq. (S3), andκ and k∞ have model-speciﬁc deﬁnitions.
Since fragmentation can be treated as a special case of secondary nucleation (14, 16), we begin with the deﬁnitions for single-step secondary nucleation, […]
114 where k2 is the (n2 + 1)th-order rate constant for formation of a secondary ﬁbril nucleus 115 of eﬀective sizen2, at a rate also proportional to the concentration of monomers already 116 incorporated into ﬁbrils (14).
The correct solution for fragmentation can be obtained by taking the limit n2→ 0 (in practice, setting n2 = 10−3) and substituting (13, 14, 21)
117 wherekf is the rate constant for fragmentation at each possible break point along the length 118 of the ﬁbril. When ﬁtting the fragmentation-dominated model, the value ofkf was con-119 strained such thatkfk+ =knk+× (10−5.5 M)nc/(10−8 M), a constraint that was also applied 120 in (16). This ensures that fragmentation becomes dominant when the ﬁbril mass concen-121 tration M(t)≈ 10 nM for a reaction with initial monomer concentration m(0) =√10 µM, 122 forcing the ﬁtting algorithm to maintain an appreciable level of fragmentation. Without 123 this constraint, kf is simply minimized in order to attain a high concentration-dependence, […]
124 resulting in a ﬁt very similar to that obtained for the Oosawa model (16). […]
used with the modiﬁed deﬁnitions
A(t) =− λ2nc− 2k2k+K2m(0)log [K2 +m(t)n2]n2
125 where K2 is the eﬀective Michaelis constant for secondary nucleation, and2F1 is a hyper-126 geometric function. Note that, unlike traditional Michaelis-Menten kinetics, the rate of 127 saturable secondary nucleation has an nth2 -order rather than a linear dependence on m(t) in 128 the low concentration limit (15, 17, 18).
129 As shown in Figure S8(b), fragmentation succeeds in producing exponential early-time 130 scaling and a pronounced lag phase, but also results in a weak concentration-dependence 131 and an overly sharp approach to the maximum ﬂuorescence intensity. The latter two issues 132 are caused by the insensitivity of fragmentation to depletion of the free monomer, and 133 also lead to a high ﬁtted reaction order of primary nucleation (nc = 5.23), an attempt to 134 compensate for the weak concentration scaling of the secondary process. Had the value 135 of kf been left unconstrained, the ﬁt would instead have done this by minimising the role 136 of the concentration-insensitive secondary pathway, producing a ﬁt similar to Figure S8(a).
138 better ﬁt, as it is able to simultaneously produce exponential early-time scaling, the correct […]

[2] = cited from earlier work
From the text: The concentration dependence is significant as it reflects the ... || The nature and reaction order of the dominant processes responsible for generating fibrils can be inferred from the scaling exponent γ, which relates the polymerization half-time to the initial monomer concentration, τhalf ∝ m0^γ. If secondary processes are negligible so that primary nucleation dominates, then γ = −nc/2, where nc is the effective order of primary nucleation.[91],[92] If most new fibrils are formed by fragmentation of existing fibrils, then γ = −1/2.[88],[89]

For “Aβ(1-42): Ultrapure recombinant Aβ(1-42) purchased from rPeptide, lyophilized from HFIP; disordered amyloid-forming peptide”, the nc ([1]; fragmentation model, kf constrained) was 5.23, the nc ([1]; primary nucleation only (Oosawa model), 1.5–6.0 μM, sample 50-5-N-13) was 2.37 and the “K2 (effective Michaelis constant for secondary nucleation)” value ([1]; saturable secondary nucleation) was 2.74 µM. It also gave a n2 ([1]; saturable secondary nucleation) of 2.37, a nc ([1]; saturable secondary nucleation, nc = n2 constrained) of 2.37 and a n2 ([1]; single-step secondary nucleation) of 1.68. The nc ([1]; single-step secondary nucleation, nc = n2 constrained) was 1.68, the “scaling exponent γ” value ([2]; high-quality in-house recombinant preparations, same experimental conditions) was “≈ −1.3” and the “fibrillization half-time τhalf” value ([2]; in-house recombinant preparations, ref Silvers et al. 75) was “≈ 2000 s”.
